Measurements reported in patent US11192849B2, “Compounds, compositions, and methods for modulating ferroptosis and treating excitotoxic disorders” (THE TRUSTEES OF COLUMBIA UNIVERSITY IN THE CITY OF NEW YORK, priority 2013, dated 2021).
Where two headings read alike, the source gives them in different places.

Test system: HT-1080 cells
Experiment: Inhibition of erastin (10 μM)-induced death in HT-1080 cells (Alamar Blue)
Format: cell-based, human
Conditions: for EC50: read-out: EC50; for prevention of erastin-induced death: erastin-treated HT-1080 cells
Procedure: Cell viability was typically assessed in 384-well format by Alamar Blue (Invitrogen) fluorescence (ex/em 530/590) measured on a Victor3 platereader (Perkin Elmer, Waltham, Mass.). In some experiments, Trypan Blue dye exclusion counting was performed using an automated cell counter (ViCell, Beckman-Coulter Inc., Brea, Calif.). Cell viability in test conditions is reported as a percentage relative to the negative control treatment.
The ability of various compounds disclosed herein to inhibit death in erastin (10 μM)-treated HT-1080 cells were tested. Cell viability was assessed by Alamar Blue. EC50 values (nM) were computed from dose response curves.
HT-1080 cells are cultured in DMEM containing 10% fetal bovine serum, 1% supplemented non-essential amino acids and 1% pen/strep mixture (Gibco) and maintained in a humidified environment at 37° C. with 5% CO2 in a tissue culture incubator. 1,000 HT-1080 cells are seeded per well in duplicate 384-well plates (Corning) using a BioMek FX liquid handling robot (Beckman Coulter). The next day, the medium is replaced with 36 μL of medium containing 10 μM erastin with 4 μL of medium containing a dilution series (previously prepared) of DMSO, Fer-1 (positive control) or Fer-1 analogs. 24 hours later, 10 μL Alamar Blue (Invitrogen) cell viability solution is added to the growth media to a final concentration of 10%. Cells are incubated a further 6 hours and then the Alamar Blue fluorescence intensity recorded using a Victor 3 platereader (PerkinElmer)(ex/em 530/590). All experiments are performed at least twice and the background (no cells)-subtracted Alamar Blue values for each combination are averaged between replicates.

[1] = Homo sapiens, HT-1080, SI Table 6
[2] = Homo sapiens, HT-1080, SI Table 4, various R3 substitutions
[3] = Homo sapiens, HT-1080, SI Table 7
[4] = Homo sapiens, HT-1080, SI Table 2, analogs with various hydrophobic moieties
[5] = Homo sapiens, HT-1080, SI Table 5
[6] = Homo sapiens, HT-1080, Table 1 (Example 10), erastin (10 μM)-treated HT-1080 cells
[7] = SI Table 3, cyclic amines bearing heteroatoms
[8] = SI Table 2, analogs with various hydrophobic moieties
[9] = Homo sapiens, HT-1080, SI Table 3, cyclic amines bearing heteroatoms

Question: `CCOC(=O)c1ccc(NC2CCCCC2)c(NCc2cccc(Cl)c2)c1` [SRS12-58, ethyl 3-(3-chlorobenzylamino)-4-(cyclohexylamino)benzoate] was tested. Which EC50 [1] did it give?
Answer: 41 nM

Question: With `Nc1ccccc1NC1CCCCC1` [SRS8-75, N1-cyclohexylbenzene-1,2-diamine] as the compound, how does the EC50 [2] read?
Answer: 330 nM

Question: Which EC50 [3] does the source give for `CCOC(=O)c1ccc(NC2CCCCC2)c(NCc2ccc(OC(C)=O)cc2)c1` [Compound 4MO43, ethyl 4-(cyclohexylamino)-3-(4-(ethanoyloxy)benzylamino)-benzoate] here?
Answer: 47 nM

Question: How did the EC50 [3] turn out when `CCOC(=O)c1ccc(NC2CCCCC2)c(NCc2cc(F)cc(Br)c2)c1` [SRS12-52, ethyl 3-(3-bromo-5-fluorobenzylamino)-4-(cyclohexylamino)-benzoate] was run?
Answer: 105 nM

Question: How did the EC50 [4] turn out when `CCOC(=O)c1ccc(NC2CCC(C)CC2)c(N)c1` (stereo not drawn) [SRS8-48, ethyl 3-amino-4-(4-methylcyclohexylamino)benzoate] was run?
Answer: 90 nM

Question: `CCOC(=O)c1ccc(NC2CCCCC2)c(NCc2ccc3ccccc3c2)c1` [SRS12-51, ethyl 4-(cyclohexylamino)-3-(naphthalen-2-ylmethylamino)-benzoate] was tested. Which EC50 [3] did it give?
Answer: 58 nM

Question: Which “prevention of erastin-induced death” value does the source give for `CC(=O)OCOC(=O)CN(CC(=O)OCOC(C)=O)c1ccccc1OCCOc1ccccc1N(CC(=O)OCOC(C)=O)CC(=O)OCOC(C)=O` [BAPTA-AM, reference compound] here?
Answer: had no effect on erastin-induced death

Question: How did the “protection when added after erastin” value (added up to 6 hours after erastin) turn out when `c1ccc(-c2ccccn2)nc1` [2,2-bipyridyl, reference compound] was run?
Answer: substantial protection from death

Question: With `CCCCCCCCN(CCCCCCCC)c1ccc(C(=O)OCC)cc1N` [SRS12-12, ethyl 3-amino-4-(dioctylamino)benzoate] as the compound, how does the EC50 [5] read?
Answer: 15300 nM

Question: How did the EC50 [4] turn out when `CCOC(=O)c1ccc(Nc2ccccc2)c(N)c1` [SRS8-42, ethyl 3-amino-4-(phenylamino)benzoate] was run?
Answer: 200 nM

Question: How did the “prevention of erastin-induced death” value turn out when `NOCC(=O)O` [AOA, aminooxyacetic acid, reference compound] was run?
Answer: rescued both HT-1080 and BJeLR cells from erastin-induced ferroptosis

Question: `CCOC(=O)c1ccc(NC23CC4CC(CC(C4)C2)C3)c(NCc2ccncc2)c1` [SRS15-24, ethyl 4-(1-adamantylamino)-3-((pyridin-4-ylmethyl)amino)-benzoate] was tested. Which EC50 [6] did it give?
Answer: 8.6 nM

Question: How did the EC50 [1] turn out when `CCOC(=O)c1ccc(NC2CCCCC2)c(NCc2ccc(C(F)(F)F)cc2)c1` [SRS12-48, ethyl 4-(cyclohexylamino)-3-(4-(trifluoromethyl)benzylamino)-benzoate] was run?
Answer: 46 nM

Question: For `CCOC(=O)c1ccc(NC2CCCCC2)c(NCc2ccc([N+](=O)[O-])cc2)c1` [SRS12-36, ethyl 4-(cyclohexylamino)-3-((4-nitrobenzyl)amino)benzoate], which EC50 [1] is on record?
Answer: 36 nM

Question: For `COC(=O)CCC(=O)C(=O)OC` [DMK, dimethyl alpha ketoglutarate, reference compound], which “prevention of erastin-induced death” value is on record?
Answer: the lethality of erastin was restored

Question: Which EC50 [7] does the source give for `CCOC(=O)c1ccc(NN2CCN(C)CC2)c(N)c1` [SRS8-53] here?
Answer: 3600 nM

Question: Which EC50 [2] does the source give for `CC(C)(C)OC(=O)NCCOCCOC(=O)c1ccc(NC2CCCCC2)c(N)c1` [SRS8-37, 2-(2-(tert-butoxycarbonylamino)ethoxy)ethyl 3-amino-4-(cyclohexylamino)benzoate] here?
Answer: 160 nM

Question: For `CCOC(=O)c1ccc(NC2CCCCC2)c(NCc2ccncc2)c1` [SRS12-45, ethyl 4-(cyclohexylamino)-3-((pyridin-4-ylmethyl)amino)-benzoate], which “potency compared with Fer-1” value (HT-1080, erastin (10 μM)) is on record?
Answer: more potent than Fer-1

Question: And the EC50 [3]?
Answer: 25 nM

Question: With `CCOC(=O)c1ccc(NC23CC4CC(CC(C4)C2)C3)c([N+](=O)[O-])c1` [SRS15-15] as the compound, how does the “EC50 (nM)” value (Table 1 (Example 10), erastin (10 μM)-treated HT-1080 cells) read?
Answer: Not active

Question: `CCOC(=O)c1ccc(NC2CCCCC2)c(NC(=O)OC)c1` [SRS11-97, ethyl 4-(cyclohexylamino)-3-(methoxycarbonylamino)benzoate] was tested. Which EC50 [5] did it give?
Answer: > 10000 nM

Question: For `CCOC(=O)c1ccc(NC2CCCCC2)c(NCc2ccc(C(=O)OC)cc2)c1` [SRS12-80, ethyl 4-(cyclohexylamino)-3-(4-(methoxycarbonyl)-benzylamino)benzoate], which EC50 [3] is on record?
Answer: 33 nM

Question: How did the EC50 [7] turn out when `CCOC(=O)c1ccc(NC2CCOCC2)c(N)c1` [SRS8-41] was run?
Answer: 1450 nM

Question: For `CCOC(=O)c1ccc(NC2CCCCCCC2)c(N(C)C)c1` [SRS9-01, ethyl 4-(cyclooctylamino)-3-(dimethylamino)benzoate], which EC50 [5] is on record?
Answer: 3000 nM

Question: Which EC50 [6] does the source give for `CCOC(=O)c1ccc(NC23CC4CC(CC(C4)C2)C3)c(NCc2ccccc2)c1` [SRS15-23, ethyl 3-(benzylamino)-4-(1-adamantylamino)benzoate] here?
Answer: 23 nM

Question: With `CCOC(=O)c1ccc(NC2C3CC4CC(C3)CC2C4)c(N(Cc2ccccc2)Cc2ccccc2)c1` (stereo not drawn) [SRS15-20_di, ethyl 3-(dibenzylamino)-4-(2-adamantylamino)benzoate] as the compound, how does the EC50 [6] read?
Answer: 914 nM

Question: For `CCOC(=O)c1ccc(NC2CCC(C(C)(C)C)CC2)c(N)c1` (single isomer, unassigned) [SRS13-10_F1, Ethyl 3-amino-4-(4-tert-butylcyclohexyl-amino)benzoate], which EC50 [8] is on record?
Answer: 44 nM

Question: How did the EC50 [6] turn out when `CCOC(=O)c1ccc(NC23CC4CC(CC(C4)C2)C3)c(N)c1` [SRS15-18, ethyl 3-amino-4-(1-adamantylamino)benzoate] was run?
Answer: 87.7 nM

Question: Which EC50 [8] does the source give for `CCOC(=O)c1ccc(NC2CCC(C(C)(C)C)CC2)c(N)c1` (single isomer, unassigned) [SRS13-10_F2, Ethyl 3-amino-4-(4-tert-butylcyclohexyl-amino)benzoate] here?
Answer: 13 nM

Question: `CCOC(=O)c1ccc(NC2CCCCC2)c(NCc2ccc(Br)cc2)c1` [SRS12-35, ethyl 3-((4-bromobenzyl)amino)-4-(cyclohexylamino)benzoate] was tested. Which EC50 [1] did it give?
Answer: 44 nM

Question: For `CCOC(=O)c1ccc(NC2CCCCCCC2)c(N)c1` [SRS8-70, ethyl 3-amino-4-(cyclooctylamino)benzoate], which EC50 [4] is on record?
Answer: 80 nM

Question: What about the EC50 [5] of the same compound?
Answer: 69 nM

Question: How did the EC50 [3] turn out when `CCOC(=O)c1ccc(NC2CCCCC2)c(NCc2cc(F)cc(F)c2)c1` [SRS12-59, ethyl 4-(cyclohexylamino)-3-(3,5-difluorobenzylamino)-benzoate] was run?
Answer: 96 nM

Question: Which EC50 [9] does the source give for `CCOC(=O)c1ccc(NC2CCC(NC(=O)OC(C)(C)C)CC2)c(N)c1` (stereo not drawn) [SRS8-46, ethyl 3-amino-4-(4-(tert-butoxycarbonylamino)cyclohexyl-amino)benzoate] here?
Answer: 515 nM

Question: With `CCOC(=O)c1ccc(NC2C3CC4CC(C3)CC2C4)c(NCc2ccncc2)c1` (stereo not drawn) [SRS15-21, ethyl 4-(2-adamantylamino)-3-((pyridin-4-ylmethyl)amino)-benzoate] as the compound, how does the EC50 [6] read?
Answer: 23 nM

Question: Which EC50 [3] does the source give for `CCOC(=O)c1ccc(NC2CCCCC2)c(NCc2ccccn2)c1` [SRS12-46, ethyl 4-(cyclohexylamino)-3-(pyridin-2-ylmethylamino)-benzoate] here?
Answer: 33 nM

Question: For `COC(=O)c1ccc(NC2CCCCC2)c(N)c1` [SRS8-61, methyl 3-amino-4-(cyclohexylamino)benzoate], which EC50 [2] is on record?
Answer: 150 nM

Question: `CCOC(=O)c1ccc(NC2C3CC4CC(C3)CC2C4)c(NCc2ccccc2)c1` (stereo not drawn) [SRS15-20_mono, ethyl 3-(benzylamino)-4-(2-adamantylamino)benzoate] was tested. Which EC50 [6] did it give?
Answer: 21.7 nM

Question: Which EC50 [3] does the source give for `CCOC(=O)c1ccc(NC2CCCCC2)c(NCc2cc(OC)cc(OC)c2)c1` [SRS12-53, ethyl 4-(cyclohexylamino)-3-(3,5-dimethoxybenzylamino)-benzoate] here?
Answer: 41 nM

Question: With `CCOC(=O)c1ccc(NC2CCCCC2)c(NCc2ccc(F)c(C#N)c2)c1` [SRS12-54, ethyl 3-(3-cyano-4-fluorobenzylamino)-4-(cyclohexylamino)-benzoate] as the compound, how does the EC50 [3] read?
Answer: 159 nM

Question: How did the EC50 [1] turn out when `CCOC(=O)c1ccc(NC2CCCCC2)c(NCc2ccc(F)cc2)c1` [SRS12-33, ethyl 4-(cyclohexylamino)-3-((4-fluorobenzyl)amino)benzoate] was run?
Answer: 50 nM

Question: For `CCOC(=O)c1ccc(NC2CCCCCCCCCCC2)c(N)c1` [SRS9-06, ethyl 3-amino-4-(cyclododecylamino)benzoate], which EC50 [4] is on record?
Answer: 70 nM

Question: How did the EC50 [1] turn out when `CCOC(=O)c1ccc(NC2CCCCC2)c(NCc2ccc(C)cc2)c1` [SRS12-34, ethyl 4-(cyclohexylamino)-3-((4-methylbenzyl)amino)benzoate] was run?
Answer: 40 nM

Question: `CCOC(=O)c1ccc(NC2CCN(C(=O)OCC)CC2)c(N)c1` [SRS8-54, ethyl 4-(2-amino-4-(ethoxycarbonyl)phenylamino)piperidine-1-carboxylate] was tested. Which EC50 [9] did it give?
Answer: 2500 nM

Question: How did the EC50 [9] turn out when `CCOC(=O)c1ccc(NC2CCC(F)(F)CC2)c(N)c1` [SRS8-52, ethyl 3-amino-4-(4,4-difluorocyclohexylamino)benzoate] was run?
Answer: 650 nM

Question: For `CCOC(=O)c1ccc(NC2CCCCC2)c(NCc2ccccc2[N+](=O)[O-])c1` [SRS12-71, ethyl 4-(cyclohexylamino)-3-(2-nitrobenzylamino)benzoate], which EC50 [1] is on record?
Answer: 126 nM

Question: Which EC50 [4] does the source give for `CCCCCCCCNc1ccc(C(=O)OCC)cc1N` [SRS8-94, ethyl 3-amino-4-(octylamino)benzoate] here?
Answer: 80 nM

Question: What about the EC50 [5] of the same compound?
Answer: 80 nM
